EC50 data for 3 compounds are collected here from ChEMBL document CHEMBL5727231, “Farnesoid X receptor agonists and uses thereof” (2019).

This assay has as its target T1, Bile acid receptor (Homo sapiens, UniProt Q96RI1).
T1 sequence (Q96RI1 whole entry): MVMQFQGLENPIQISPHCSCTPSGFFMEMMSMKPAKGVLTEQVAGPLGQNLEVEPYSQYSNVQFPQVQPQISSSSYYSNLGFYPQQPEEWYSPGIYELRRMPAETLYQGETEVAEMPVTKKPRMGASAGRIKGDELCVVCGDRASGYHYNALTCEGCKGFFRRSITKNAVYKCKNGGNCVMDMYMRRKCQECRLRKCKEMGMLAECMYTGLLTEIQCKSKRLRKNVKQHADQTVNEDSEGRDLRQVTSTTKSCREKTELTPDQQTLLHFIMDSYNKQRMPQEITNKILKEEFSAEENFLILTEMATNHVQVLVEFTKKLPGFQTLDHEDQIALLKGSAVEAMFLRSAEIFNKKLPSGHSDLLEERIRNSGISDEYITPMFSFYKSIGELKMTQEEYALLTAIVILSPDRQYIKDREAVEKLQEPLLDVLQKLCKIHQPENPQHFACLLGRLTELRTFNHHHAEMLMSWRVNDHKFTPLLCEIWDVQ
The assay can be described thus: In Vitro FXR Assay (TK): SeedingCV-1 cells were seeded at a density of 2,000,000 cells in a T175 flask with DMEM+10% charcoal double-stripped FBS and incubated at 37° C. in 5% CO2 for 18 h (O/N).TransfectionAfter 18 h of incubation, the medium in the T175 flask was changed with fresh DMEM+10% charcoal super-stripped serum. In a polypropylene tube, 2500 μL OptiMEM (Life Technologies, Cat #31985-062) was combined with expression plasmids for hFXR, hRXR, TK-ECRE-luc and pCMX-YFP. The tube was then briefly vortexed and incubated at room temperature for 5 minutes. Transfection reagent (X-tremeGENE HP from Roche, Cat #06 366 236 001) was added to the OptiMEM/plasmid mixture vortexed and incubated at room temperature for 20 minutes. Following incubation, the transfection reagent/DNA mixture complex was added to cells in the T175 flask and the cells were incubated at 37° C. in 5% CO2 for 18 h (O/N).Test CompoundsCompounds were serially diluted in DMSO and added to transfected CV-1 cells. The cells were then incubated for 18 hrs. The next day cells were lysed and examined for luminescence.

Bounds are passed on as bounds.

As usually defined, the EC50 is the concentration needed to bring the measured effect to its halfway point. On to `COC(=O)c1ccc2c(N(C[C@H]3CC[C@H](c4cccc(OC)c4)CC3)C(=O)CC(C)(C)C)nccc2c1`, for which the concentration giving a half-maximal response (EC50) was under 1000 nM.

In the case of `COC(=O)c1ccc2c(N(C[C@H]3CC[C@H](c4ccc(OC)c(C)c4)CC3)C(=O)C3CCCCC3)nccc2c1`, the concentration for a half-maximal effect (EC50) is under 1000 nM.

For the compound `COC(=O)c1ccc2c(N(C[C@H]3CC[C@H](c4ccc(C)cc4)CC3)C(=O)CC(C)(C)C)nccc2c1`, the EC50 was under 1000 nM.
